According to the supplement of paper PMC11451515:

Legend:
Conditions in all cases: 48 h
[1] = tested on: NOMO1; assay: cell viability relative to DMSO control; higher = less cytotoxic
How it was run: (§1)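 Library compounds in DMSO were pin-dosed in an 11-point threefold series (47 μM to 0.79 nM) onto leukemia cells in 1536-well plates (5 μl). Plates held 500 cells/well of NOMO1 or SEM or 1000 cells/well of P12-Ichikawa, each adapted for at least four passages in each medium. Luminescence was read with CellTiter-Glo One after 48 h at 37°C. Viability means the per-plate percentage relative to DMSO wells, using cell-free wells as background.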

[2] = tested on: SEM cells; assay: as above
How it was run: as §1

[3] = tested on: P12-Ichikawa; assay: as above
How it was run: as §1

[4] = tested on: NOMO1; assay: AUC of viability dose-response curve (% viability x log10 dose units); higher = less sensitive
How it was run: (§2)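 Over 48 h at 37°C, leukemia cells in 1536-well plates (500 or 1000 cells/well), adapted to each medium, received library compounds in DMSO at 11 threefold doses from 47 μM to 0.79 nM. CellTiter-Glo One luminescence, normalised per plate to DMSO and cell-free wells, was fitted by a four-parameter log-logistic function of log10 dose. The area under the curve was then integrated by trapezoidal rule, after scaling curves above full viability and removing those that failed quality control.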

[5] = tested on: SEM cells; assay: as above
How it was run: as §2

[6] = tested on: P12-Ichikawa; assay: as above
How it was run: as §2

CNC(=O)c1cc(COc2nnc(Nc3ccc(Cl)cc3)c3ccoc23)ccn1
cell viability [%]
Conditions | [1] | [2] | [3]
HPLM + 10% dialyzed FBS, 0.000781 µM | 110 | 108 | 119
HPLM + 10% dialyzed FBS, 0.00234 µM | 110 | 112 | 109
HPLM + 10% dialyzed FBS, 0.00702 µM | 107 | 102 | 110
HPLM + 10% dialyzed FBS, 0.0211 µM | 103 | 110 | 105
HPLM + 10% dialyzed FBS, 0.0632 µM | 114 | 121 | 106
HPLM + 10% dialyzed FBS, 0.19 µM | 131 | 97.9 | 113
HPLM + 10% dialyzed FBS, 0.569 µM | 114 | 96 | 105
HPLM + 10% dialyzed FBS, 1.71 µM | 107 | 108 | 103
HPLM + 10% dialyzed FBS, 5.12 µM | 98.2 | 102 | 106
HPLM + 10% dialyzed FBS, 15.4 µM | 91.1 | 79.9 | 101
HPLM + 10% dialyzed FBS, 46.1 µM | 65.7 | 61.2 | 89.4
RPMI 5 mM glucose + 10% FBS, 0.000781 µM | 114 | 124 | 117
RPMI 5 mM glucose + 10% FBS, 0.00234 µM | 123 | 124 | 116
RPMI 5 mM glucose + 10% FBS, 0.00702 µM | 106 | 110 | 118
RPMI 5 mM glucose + 10% FBS, 0.0211 µM | 112 | 124 | 115
RPMI 5 mM glucose + 10% FBS, 0.0632 µM | 110 | 117 | 116
RPMI 5 mM glucose + 10% FBS, 0.19 µM | 111 | 127 | 113
RPMI 5 mM glucose + 10% FBS, 0.569 µM | 109 | 128 | 112
RPMI 5 mM glucose + 10% FBS, 1.71 µM | 104 | 129 | 110
RPMI 5 mM glucose + 10% FBS, 5.12 µM | 92.6 | 97.1 | 105
RPMI 5 mM glucose + 10% FBS, 15.4 µM | 87.4 | 95 | 107
RPMI 5 mM glucose + 10% FBS, 46.1 µM | 87.5 | 64.7 | 102
RPMI 5 mM glucose + 10% dialyzed FBS, 0.000781 µM | 104 | 96.6 | 114
RPMI 5 mM glucose + 10% dialyzed FBS, 0.00234 µM | 111 | 108 | 130
RPMI 5 mM glucose + 10% dialyzed FBS, 0.00702 µM | 107 | 90.4 | 108
RPMI 5 mM glucose + 10% dialyzed FBS, 0.0211 µM | 101 | 99 | 114
RPMI 5 mM glucose + 10% dialyzed FBS, 0.0632 µM | 109 | 95.4 | 104
RPMI 5 mM glucose + 10% dialyzed FBS, 0.19 µM | 102 | 104 | 115
RPMI 5 mM glucose + 10% dialyzed FBS, 0.569 µM | 92.7 | 102 | 116
RPMI 5 mM glucose + 10% dialyzed FBS, 1.71 µM | 96.4 | 86.1 | 100
RPMI 5 mM glucose + 10% dialyzed FBS, 5.12 µM | 98.6 | 88.4 | 111
RPMI 5 mM glucose + 10% dialyzed FBS, 15.4 µM | 101 | 70.4 | 101
RPMI 5 mM glucose + 10% dialyzed FBS, 46.1 µM | 87.3 | 47.9 | 97.4

AUC of viability dose-response curve
Conditions | [4] | [5] | [6]
HPLM + 10% dialyzed FBS | 449 | 452 | 440
RPMI 5 mM glucose + 10% FBS | 446 | 446 | 458
RPMI 5 mM glucose + 10% dialyzed FBS | 452 | 436 | 440

CN1C(=O)C(=C/2N(C(=O)N(C3CC3)C(=O)C2=C1/NC4=CC=C(I)C=C4F)C5=CC=CC(=C5)NC(C)=O)\C
Conditions | cell viability [%]
[1], HPLM + 10% dialyzed FBS, 0.000781 µM | 117
[1], HPLM + 10% dialyzed FBS, 0.00234 µM | 134
[1], HPLM + 10% dialyzed FBS, 0.00702 µM | 113
[1], HPLM + 10% dialyzed FBS, 0.0211 µM | 99.3
[1], HPLM + 10% dialyzed FBS, 0.0632 µM | 83.4
[1], HPLM + 10% dialyzed FBS, 0.19 µM | 61.1
[1], HPLM + 10% dialyzed FBS, 0.569 µM | 52.3
[1], HPLM + 10% dialyzed FBS, 1.71 µM | 41.1
[1], HPLM + 10% dialyzed FBS, 5.12 µM | 10.8
[1], HPLM + 10% dialyzed FBS, 15.4 µM | 7.05
[1], HPLM + 10% dialyzed FBS, 46.1 µM | 6.86
[1], RPMI 5 mM glucose + 10% dialyzed FBS, 0.000781 µM | 117
[1], RPMI 5 mM glucose + 10% dialyzed FBS, 0.00234 µM | 135
[1], RPMI 5 mM glucose + 10% dialyzed FBS, 0.00702 µM | 124
[1], RPMI 5 mM glucose + 10% dialyzed FBS, 0.0211 µM | 92.7
[1], RPMI 5 mM glucose + 10% dialyzed FBS, 0.0632 µM | 81
[1], RPMI 5 mM glucose + 10% dialyzed FBS, 0.19 µM | 63.8
[1], RPMI 5 mM glucose + 10% dialyzed FBS, 0.569 µM | 55.1
[1], RPMI 5 mM glucose + 10% dialyzed FBS, 1.71 µM | 49.6
[1], RPMI 5 mM glucose + 10% dialyzed FBS, 5.12 µM | 27.6
[1], RPMI 5 mM glucose + 10% dialyzed FBS, 15.4 µM | 9.59
[1], RPMI 5 mM glucose + 10% dialyzed FBS, 46.1 µM | 6.9
[2], RPMI 5 mM glucose + 10% FBS, 0.000781 µM | 107
[2], RPMI 5 mM glucose + 10% FBS, 0.00234 µM | 129
[2], RPMI 5 mM glucose + 10% FBS, 0.00702 µM | 118
[2], RPMI 5 mM glucose + 10% FBS, 0.0211 µM | 129
[2], RPMI 5 mM glucose + 10% FBS, 0.0632 µM | 136
[2], RPMI 5 mM glucose + 10% FBS, 0.19 µM | 114
[2], RPMI 5 mM glucose + 10% FBS, 0.569 µM | 85.6
[2], RPMI 5 mM glucose + 10% FBS, 1.71 µM | 60.1
[2], RPMI 5 mM glucose + 10% FBS, 5.12 µM | 7.99
[2], RPMI 5 mM glucose + 10% FBS, 15.4 µM | 4.7
[2], RPMI 5 mM glucose + 10% FBS, 46.1 µM | 4.99
[3], HPLM + 10% dialyzed FBS, 0.000781 µM | 121
[3], HPLM + 10% dialyzed FBS, 0.00234 µM | 130
[3], HPLM + 10% dialyzed FBS, 0.00702 µM | 122
[3], HPLM + 10% dialyzed FBS, 0.0211 µM | 123
[3], HPLM + 10% dialyzed FBS, 0.0632 µM | 113
[3], HPLM + 10% dialyzed FBS, 0.19 µM | 112
[3], HPLM + 10% dialyzed FBS, 0.569 µM | 101
[3], HPLM + 10% dialyzed FBS, 1.71 µM | 90.9
[3], HPLM + 10% dialyzed FBS, 5.12 µM | 12.8
[3], HPLM + 10% dialyzed FBS, 15.4 µM | 4.68
[3], HPLM + 10% dialyzed FBS, 46.1 µM | 4.28

AUC of viability dose-response curve
Conditions | [4] | [5] | [6]
HPLM + 10% dialyzed FBS | 249 | 325 | 354
RPMI 5 mM glucose + 10% FBS | 255 | 323 | 340
RPMI 5 mM glucose + 10% dialyzed FBS | 255 | 318 | 355

COc1ccc(CC2SC(=O)NC2=O)cc1C(=O)NCc1ccc(C(F)(F)F)cc1 (centres undefined)
cell viability [%]
Conditions | [1] | [2] | [3]
HPLM + 10% dialyzed FBS, 0.000781 µM | 84.2 | 75 | 85.3
HPLM + 10% dialyzed FBS, 0.00234 µM | 83.3 | 82.5 | 84.7
HPLM + 10% dialyzed FBS, 0.00702 µM | 90.7 | 79 | 90.5
HPLM + 10% dialyzed FBS, 0.0211 µM | 86.1 | 82.5 | 96
HPLM + 10% dialyzed FBS, 0.0632 µM | 79.4 | 73.6 | 88.3
HPLM + 10% dialyzed FBS, 0.19 µM | 85.5 | 92.5 | 96.3
HPLM + 10% dialyzed FBS, 0.569 µM | 99.3 | 76.9 | 93.8
HPLM + 10% dialyzed FBS, 1.71 µM | 99.2 | 83.2 | 95
HPLM + 10% dialyzed FBS, 5.12 µM | 83 | 95.9 | 88.2
HPLM + 10% dialyzed FBS, 15.4 µM | 82.1 | 79.2 | 83.6
HPLM + 10% dialyzed FBS, 46.1 µM | 86.3 | 40.4 | 86.9
RPMI 5 mM glucose + 10% FBS, 0.000781 µM | 75.9 | 90 | 82.1
RPMI 5 mM glucose + 10% FBS, 0.00234 µM | 88.2 | 86.8 | 78.3
RPMI 5 mM glucose + 10% FBS, 0.00702 µM | 94 | 101 | 81
RPMI 5 mM glucose + 10% FBS, 0.0211 µM | 88 | 84.1 | 87
RPMI 5 mM glucose + 10% FBS, 0.0632 µM | 81.7 | 79.8 | 78.9
RPMI 5 mM glucose + 10% FBS, 0.19 µM | 84.1 | 109 | 83.7
RPMI 5 mM glucose + 10% FBS, 0.569 µM | 90.1 | 96.5 | 94.5
RPMI 5 mM glucose + 10% FBS, 1.71 µM | 92 | 106 | 89.2
RPMI 5 mM glucose + 10% FBS, 5.12 µM | 81.4 | 101 | 86.4
RPMI 5 mM glucose + 10% FBS, 15.4 µM | 85.3 | 89.9 | 77.2
RPMI 5 mM glucose + 10% FBS, 46.1 µM | 92 | 45.2 | 66.7
RPMI 5 mM glucose + 10% dialyzed FBS, 0.000781 µM | 89.1 | 88 | 79.5
RPMI 5 mM glucose + 10% dialyzed FBS, 0.00234 µM | 89.1 | 88.8 | 82.5
RPMI 5 mM glucose + 10% dialyzed FBS, 0.00702 µM | 86.9 | 88.4 | 81.7
RPMI 5 mM glucose + 10% dialyzed FBS, 0.0211 µM | 96 | 87.6 | 71.5
RPMI 5 mM glucose + 10% dialyzed FBS, 0.0632 µM | 89 | 77.6 | 74.3
RPMI 5 mM glucose + 10% dialyzed FBS, 0.19 µM | 93.4 | 98.8 | 74.2
RPMI 5 mM glucose + 10% dialyzed FBS, 0.569 µM | 96.7 | 93.8 | 80.2
RPMI 5 mM glucose + 10% dialyzed FBS, 1.71 µM | 86.3 | 97.4 | 75.1
RPMI 5 mM glucose + 10% dialyzed FBS, 5.12 µM | 85.9 | 38.6 | 74.9
RPMI 5 mM glucose + 10% dialyzed FBS, 15.4 µM | 79.3 | 83.6 | 69.3
RPMI 5 mM glucose + 10% dialyzed FBS, 46.1 µM | 90.8 | 56.1 | 63.6

AUC of viability dose-response curve
Conditions | [4] | [5] | [6]
HPLM + 10% dialyzed FBS | 416 | 381 | 430
RPMI 5 mM glucose + 10% FBS | 415 | 439 | 396
RPMI 5 mM glucose + 10% dialyzed FBS | 427 | 393 | 361
